According to patent publication US10414764B2, “Substantially pure vemurafenib and its salts” (SHILPA MEDICARE LIMITED, priority 2014, dated 2019):
Where a name gives a salt, the structure may show the parent alone. Read-outs that look alike come from different tables or passages of the source. Blank lines part the entries; values can stand above or below the compound they belong to.

Experiments:
[1] = cited from earlier work; for Solubility in water: marketed/prior reported crystalline Form II, from EMEA scientific discussion of Zelboraf
[2] = Solubility in water; format: physicochemical; settings: product as per the present invention
[3] = European assessment report of Zelboraf; low solubility and permeability; cited from earlier work
[4] = Storage stability (morphology and physicochemical characteristics); settings: Vemurafenib obtained as per the present process

SMILES: CCCS(=O)(=O)Nc1ccc(F)c(C(=O)c2c[nH]c3ncc(-c4ccc(Cl)cc4)cc23)c1F [Form-II, propane-1-sulfonic acid-{3-[5-(4-chlorophenyl)-1H-pyrrolo[2,3-b]pyridine-3-carbonyl]-2,4-difluoro-phenyl}-amide]
Solubility in water [1]: <0.1 µg/mL
Solubility in water ([1]; listed as Crystalline Vemurafenib (Form II)): < 0.1 µg/mL

Solubility in water [2]: ≥ 1 µg/mL
SMILES: CCCS(=O)(=O)Nc1ccc(F)c(C(=O)c2c[nH]c3ncc(-c4ccc(Cl)cc4)cc23)c1F [Vemurafenib trifluoro methane sulfonic acid salt]

Stable to handle and store without significant change in morphology and physicochemical characteristics [4]: more than 6 months
SMILES: CCCS(=O)(=O)Nc1ccc(F)c(C(=O)c2c[nH]c3ncc(-c4ccc(Cl)cc4)cc23)c1F [Vemurafenib, propane-1-sulfonic acid-{3-[5-(4-chlorophenyl)-1H-pyrrolo[2,3-b]pyridine-3-carbonyl]-2,4-difluoro-phenyl}-amide]
Biopharmaceutics Classification System class [3]: Class IV
Solubility in aqueous media ([1]; background description of the drug substance): practically insoluble
Solubility in water [1]: < 0.1 µg/mL

Solubility in water [2]: >1 µg/mL
solubility ([2]; water): > 1 µg/mL
SMILES: CCCS(=O)(=O)Nc1ccc(F)c(C(=O)c2c[nH]c3ncc(-c4ccc(Cl)cc4)cc23)c1F [Form-SVM, propane-1-sulfonic acid-{3-[5-(4-chlorophenyl)-1H-pyrrolo[2,3-b]pyridine-3-carbonyl]-2,4-difluoro-phenyl}-amide]
